Measurements taken from patent US20030108620A1, “Pharmaceutical composition comprising a physiologically acceptable vanadium compound, salt or complex and at least a component selected from a na+/hinhibitors, cyclo-oxygenase inhibitors and caspase inhibitors” (priority 1999, published 2003).

What was measured:
[1] = system: hearts of phenobarbital anaesthetized rats; experiment: Infarcted area after 60 minutes coronary artery occlusion and 180 minutes of reperfusion in anaesthetized rats; assay type: in vivo, rat; settings: for LA/AR ratio: normothermia (36.5-37.5° C.), mean±standard error margin, n=6, P<0.001, pretreated 25 minutes prior to CAO; for IA (% AR) / % Reduction: rat, 60 min CAO and 180 min reperfusion; for IA (% AR): i.v. bolus 25 minutes prior to CAO, BMOV 3.3 mg/kg, DMA 3.0 mg/kg; for % Reduction: reduction of IA (% AR) versus control
Protocol: Area at risk (AR) and infarcted area (IA) were determined in hearts of phenobarbital anaesthetized rats after 60 minutes coronary artery occlusion (CAO) and 180 minutes of reperfusion. […] The mean AR expressed as percentage of the left ventricle was not different between the control and the experimental group.

[2] = system: deep burn wounds, dermis; experiment: Deep burn wound model in the Yorkshire pig, preservation of the dermis; assay type: in vivo, Yorkshire White; settings: intravenously in a single dose; for % Preservation of dermis: equal dose in g/kg bodyweight
Source text: The Yorkshire pig has been chosen as the experimental animal because of all animal species this domestic pig seems to be the one with morphological and functional skin characteristics nearest to human skin and so best fulfils the requirements of a model for human skin. In basic architecture it resembles human skin in the relative thickness of the epidermis and dermis, the presence of epidermal ridges, a distinct dermal papillary layer and a deep layer of subdermal fat. Compared to human the elastic fibre content of porcine dermis is relatively low, but higher than in any other species. […] Studies on the proliferation rate of porcine epidermis show parallels with those of humans. The keratinous proteins are similar. Unlike the skin of rodents, the follicular pattern in pigs and humans is relatively sparse and arranged as single hairs or in groups of two or three follicles. […] The regulation of body temperature by the skin is more evident in humans than in the pig. In the skin of the pig no eccrine glands are found. It does have apocrine glands, but their role in thermoregulation remains debatable. The vascular anatomy of pig skin consists of a three layered network; lower, mid-dermal and sub epidermal. The size, orientation and distribution of the vessels are strikingly similar to human skin, but it does differ from humans in that the sub epidermal network is less dense. The vascularisation of the lower region of the follicle corresponds to that in humans. The healing of deep dermal bums, which depends on this phenomenon, might also be analogous. Studies on the thermal properties of porcine skin as a function of depth have been performed by measuring the tissue water content.
Protocol 1a: Twelve identical deep burn wounds were inflicted in each animal. The animal model used is developed in the Burn Research Institute (Beverwijk, The Netherlands) and is a standard for all of the experimental burn wound research. The model is also accepted by the animal experimental commission of the University of Amsterdam.
Protocol 1b: Six biopsies of 6 mm of the burned area were taken from each big and transferred to a non-burned area. Six biopsies of 6 mm of the non-burned area were be taken from each pig and transferred to a burned area. (Determination of the indirect injury) Animals: pig, Yorkshire White, female, +/− 30 kg. […]

[3] = system: swine myocardium; settings: also when administered after the onset of ischaemia; cited from earlier work

With `Cc1occc(=O)c1[O-].Cc1occc(=O)c1[O-].[O]=[V+2]` [BMOV, bis(maltolato)oxovanadium(IV)] the LA/AR ratio [1] was 45±3%, the “IA (% AR)” value [1] was 45 % AR and the “% Reduction” value [1] was 36%. The “protection of structures in the dermis (deep vascular plexus, hair-adnexes, sweat glands)” value [2] was “protected” and the “% Preservation of dermis” value [2] was 40-50%.
For `CN(C)c1nc(N)c(C(=O)N=C(N)N)nc1Cl` [DMA, dimethylamiloride], the LA/AR ratio [1] was 45±3%, the “IA (% AR)” value [1] was 55 % AR and the “% Reduction” value [1] was 21%. The “protection of structures in the dermis (deep vascular plexus, hair-adnexes, sweat glands)” value [2] was “protected” and the “% Preservation of dermis” value [2] was 20%.
In the case of `CS(=O)(=O)O.CS(=O)(=O)c1cc(C(=O)NC(=N)N)ccc1N1CCCCC1` [HOE 694, (3-methylsulfonyl-4-piperidinobenzoyl)-guanidine methanesulfonate], the infarct size [3] is listed as “substantial reduction of the infarct size”.
